From US11479551B2, “MTA-cooperative PRMT5 inhibitors” (Mirati Therapeutics, Inc., priority 2019, dated 2022)
pIC50: −log10 of the molar value. Like-named read-outs stand apart in the source and are kept apart here.

Columns and labels:
PRMT5/MEP50 complex [1] = molecular target: T1, PRMT5/MEP50 complex (Homo sapiens (Human), UniProt O14744); assay: PRMT5:MEP50 HotSpot Assay (full-length histone H2A substrate, plus and minus MTA); assay type: biochemical
Procedure, shortened: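 Radiometric filter-binding format using recombinant full-length histone H2A as substrate. After the reaction was stopped, mixtures went onto filter paper and tritiated H2A was quantified by scintillation counting.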

HCT116 parental cells = assay: Proliferation assay (CellTiter-Glo, 10 days of treatment), HCT116 parental; assay type: cell-based
Method: Control samples were analyzed in parallel.
Briefly, on Day 0, 250 HCT116 parental or HCT116 homozygous MTAP knockout cell were seeded in 96 well plates in McCoy's 5A supplemented with 10% fetal bovine serum and pen/strep and the cells were incubated overnight at 37° C. plus 5% CO2.
The following day, cells were treated with DMSO vehicle control or a dose response of PRMT5 inhibitors and incubated at 37 C plus 5% CO2 for five days. On Day 6, the cells were trypsinized and split 1:10 into new 96-well plates with fresh medium containing the same concentration of PRMT5 inhibitor and incubated for an additional 5 days at 37° C. plus 5% CO^2.
On Day 11, the viability of the cells was measured using a CTG assay kit (CellTiter-Glo; Promega cat.no G7573) in accordance with the manufacturer's instructions. The IC50 values for each compound after 10 days of treatment were calculated using GraphPad PRISM software.

[2] = tested on: HCT116 homozygous MTAP knockout cells; assay: Proliferation assay (CellTiter-Glo, 10 days of treatment), HCT116 MTAP knockout; assay type: cell-based; settings: read-out: Proliferation HCT116MTAP_KO IC50
Procedure, shortened: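 Cells (250/well) seeded in McCoy's 5A with 10% FBS, then treated the next day with a PRMT5 inhibitor dose response at 37 °C, 5% CO2. On day 6 they were split 1:10 into fresh medium with the same compound concentration. CellTiter-Glo viability was read on day 11 and IC50 taken after 10 days of treatment.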

[3] = tested on: PRMT5-dependent Symmetric Di-methyl Arginine signal in HCT116 parental cells; assay: SYM11 In-Cell Western, HCT116 parental; assay type: cell-based; settings: 4 days of treatment, SYM11/DRAQ5 ratio
Procedure, shortened: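 HCT116 parental cells (2,000/well, McCoy's 5A with 10% FBS) dosed with PRMT5 inhibitors for four days at 37° C. Fixed in paraformaldehyde and methanol, then stained with SYM11 antibody and DRAQ5.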

[4] = tested on: PRMT5-dependent Symmetric Di-methyl Arginine signal in HCT116 homozygous MTAP knockout cells; assay: SYM11 In-Cell Western, HCT116 MTAP knockout; assay type: cell-based; settings: HCT116 homozygous MTAP knockout cells, 4 days of treatment, SYM11/DRAQ5 ratio, read-out: In-cell-Western (SYM11) HCT116 MTAP_KO IC50
PRMT5/MEP50 complex [5] = molecular target: T1, PRMT5/MEP50 complex; assay: PRMT5:MEP50 FlashPlate Assay (histone H4 peptide substrate, plus and minus MTA); assay type: biochemical
Method: The PRMT5 inhibitory activity of compounds of the present invention was determined using either a PRMT5:MEP50 FlashPlate Assay (Reaction Biology Corporation) or a PRMT5:MEP50 HotSpot Assay (Reaction Biology Corporation).
1. PRMT5:MEP50 FlashPlate Assay

[6] = in the absence of MTA, read-out: IC50
[7] = IC50 + 2 μM MTA, in the presence of 2 μM MTA

T1 sequence (O14744 2-637): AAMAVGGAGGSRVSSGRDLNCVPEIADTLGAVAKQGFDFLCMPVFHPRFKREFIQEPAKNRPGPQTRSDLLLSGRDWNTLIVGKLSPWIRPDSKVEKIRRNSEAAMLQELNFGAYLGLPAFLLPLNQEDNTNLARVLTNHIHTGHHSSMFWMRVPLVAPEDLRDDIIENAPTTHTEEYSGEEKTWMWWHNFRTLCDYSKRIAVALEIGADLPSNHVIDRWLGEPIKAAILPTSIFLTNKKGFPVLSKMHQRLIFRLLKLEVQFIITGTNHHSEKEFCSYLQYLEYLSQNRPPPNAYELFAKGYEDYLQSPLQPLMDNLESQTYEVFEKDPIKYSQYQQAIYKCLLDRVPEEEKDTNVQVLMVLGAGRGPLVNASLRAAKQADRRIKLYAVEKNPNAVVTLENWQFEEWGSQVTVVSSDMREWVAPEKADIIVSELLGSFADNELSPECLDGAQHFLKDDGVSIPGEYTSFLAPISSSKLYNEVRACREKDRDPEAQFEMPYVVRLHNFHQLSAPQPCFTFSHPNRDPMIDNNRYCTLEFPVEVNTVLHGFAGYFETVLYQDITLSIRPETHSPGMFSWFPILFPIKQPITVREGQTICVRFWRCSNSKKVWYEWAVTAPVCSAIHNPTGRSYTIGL
T1 sequence (Q9BQA1 2-342 partner): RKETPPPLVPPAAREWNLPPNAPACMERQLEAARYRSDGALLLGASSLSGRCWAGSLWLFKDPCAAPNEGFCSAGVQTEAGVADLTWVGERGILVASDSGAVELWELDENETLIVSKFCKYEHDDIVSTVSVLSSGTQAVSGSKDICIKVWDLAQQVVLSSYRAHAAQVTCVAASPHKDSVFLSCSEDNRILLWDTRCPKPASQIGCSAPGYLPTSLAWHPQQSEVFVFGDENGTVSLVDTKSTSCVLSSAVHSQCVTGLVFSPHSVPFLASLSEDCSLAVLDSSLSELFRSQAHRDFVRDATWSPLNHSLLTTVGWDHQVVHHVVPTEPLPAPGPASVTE

| pIC50 (PRMT5/MEP50 complex [1]; read-out: IC50 + 2 μM MTA, in the presence of 2 μM MTA) | pIC50 [2] | pIC50 [4] | IC50 (PRMT5/MEP50 complex [5]; IC50 + 2 μM MTA (nM), in the presence of 2 μM MTA) | pIC50 (PRMT5/MEP50 complex [5]; [6]) | pIC50 ([2]; Homo sapiens, HCT-116, 240 h) | pIC50 ([4]; Homo sapiens, HCT-116, 96 h) | pIC50 (PRMT5/MEP50 complex [1]; [7]) | pIC50 (PRMT5/MEP50 complex [1]; [6]) | Compound | pIC50 (HCT116 parental cells) | pIC50 [3] | pIC50 (HCT116 parental cells; Homo sapiens, HCT-116, 240 h) | pIC50 ([3]; Homo sapiens, HCT-116, 96 h) |
| --- | --- | --- | --- | --- | --- | --- | --- | --- | --- | --- | --- | --- | --- |
|  |  |  |  |  | 6.21 | 7.60 | 5.60 |  | Cc1cc(C#N)c(-c2c(-c3ccc4c(=O)[nH]nc(CN)c4c3)cnn2C)cc1Cl [Example 4-127, 2-(4-(4-(aminomethyl)-1-oxo-1,2-dihydrophthalazin-6-yl)-1-methyl-1H-pyrazol-5-yl)-4-chloro-5-methylbenzonitrile] |  |  | < 5.00 | 5.23 |
|  |  |  |  |  | 6.37 | 7.41 | 5.88 |  | Cn1ncc(-c2ccc3c(=O)[nH]nc(CN)c3c2)c1-c1cc2ccccc2cc1C#N [Example 4-128, 3-(4-(4-(aminomethyl)-1-oxo-1,2-dihydrophthalazin-6-yl)-1-methyl-1H-pyrazol-5-yl)-2-naphthonitrile] |  |  | 5.02 | 5.40 |
|  |  |  |  |  | 5.87 | 6.42 | 5.78 |  | COc1cc(C#N)c(-c2c(-c3ccc4c(=O)[nH]nc(CN)c4c3)cnn2C)cc1OC [Example 4-129, 2-(4-(4-(aminomethyl)-1-oxo-1,2-dihydrophthalazin-6-yl)-1-methyl-1H-pyrazol-5-yl)-4,5-dimethoxybenzonitrile] |  |  | < 5.00 | < 5.00 |
|  |  |  |  |  | 6.12 | 7.62 | 5.71 |  | COc1cc(-c2c(-c3ccc4c(=O)[nH]nc(CN)c4c3)cnn2C)c(C#N)cc1Cl [Example 4-130, 2-(4-(4-(aminomethyl)-1-oxo-1,2-dihydrophthalazin-6-yl)-1-methyl-1H-pyrazol-5-yl)-5-chloro-4-methoxybenzonitrile] |  |  | < 5.00 | < 5.00 |
|  |  |  |  |  | 6.07 | 7.37 | 5.72 |  | Cc1cc(C#N)c(-c2c(-c3ccc4c(=O)[nH]nc(CN)c4c3)cnn2C)cc1C [Example 4-131, 2-(4-(4-(aminomethyl)-1-oxo-1,2-dihydrophthalazin-6-yl)-1-methyl-1H-pyrazol-5-yl)-4-5-dimethylbenzonitrile] |  |  | < 5.00 | 5.49 |
|  |  |  |  |  | 6.23 | 7.62 | 5.59 |  | Cc1cc(-c2c(-c3ccc4c(=O)[nH]nc(CN)c4c3)cnn2C)c(C#N)cc1Cl [Example 4-132, 2-(4-(4-(aminomethyl)-1-oxo-1,2-dihydrophthalazin-6-yl)-1-methyl-1H-pyrazol-5-yl)-5-chloro-4-methylbenzonitrile] |  |  | < 5.00 | < 5.00 |
|  |  |  |  |  | 5.41 | 7.33 | 5.96 |  | Cn1ncc(-c2ccc3c(=O)[nH]nc(CN)c3c2)c1-c1ccc(Cl)c(Cl)c1 [Example 4-140, 4-(aminomethyl)-6-(5-(3,4-dichlorophenyl)-1-methyl-1H-pyrazol-4-yl)phthalazin-1(2H)-one] |  |  | 5.17 | < 5.00 |
|  |  |  |  |  | 5.68 | 7.06 | 6.10 |  | Cn1ncc(-c2ccc3c(=O)[nH]nc(CN)c3c2)c1-c1cc(Cl)cc(Cl)c1 [Example 4-141, 4-(aminomethyl)-6-(5-(3,5-dichlorophenyl)-1-methyl-1H-pyrazol-4-yl)phthalazin-1(2H)-one] |  |  | 5.26 | 5.30 |
|  |  |  |  |  | 5.67 | 6.72 | 6.06 |  | CCOc1ccc(-c2c(-c3ccc4c(=O)[nH]nc(CN)c4c3)cnn2C)cc1C#N [Example 4-145, 5-(4-(4-(aminomethyl)-1-oxo-1,2-dihydrophthalazin-6-yl)-1-methyl-1H-pyrazol-5-yl)-2-ethoxybenzonitrile] |  |  | 5.42 | 5.26 |
|  |  |  |  |  | 6.51 | 7.52 | 6.64 |  | Cn1ncc(-c2ccc3c(=O)[nH]nc(CN)c3c2)c1-c1ccc(Cl)c(Cl)c1C#N [Example 4-148, 6-(4-(4-(aminomethyl)-1-oxo-1,2-dihydrophthalazin-6-yl)-1-methyl-1H-pyrazol-5-yl)-2,3-dichlorobenzonitrile] |  |  | 5.11 | 5.07 |
|  |  |  |  |  | 6.18 | 7.74 | 6.17 |  | Cc1cc(Cl)c(C#N)c(-c2c(-c3ccc4c(=O)[nH]nc(CN)c4c3)cnn2C)c1 [Example 4-150, 2-(4-(4-(aminomethyl)-1-oxo-1,2-dihydrophthalazin-6-yl)-1-methyl-1H-pyrazol-5-yl)-6-chloro-4-methylbenzonitrile] |  |  | < 5.00 | 5.08 |

Second part, the compound before the results:

| Compound | pIC50 (PRMT5/MEP50 complex [1]; read-out: IC50 + 2 μM MTA, in the presence of 2 μM MTA) | pIC50 [2] | pIC50 [4] | IC50 (PRMT5/MEP50 complex [5]; IC50 + 2 μM MTA (nM), in the presence of 2 μM MTA) | pIC50 (PRMT5/MEP50 complex [5]; [6]) | pIC50 ([2]; Homo sapiens, HCT-116, 240 h) | pIC50 ([4]; Homo sapiens, HCT-116, 96 h) | pIC50 (PRMT5/MEP50 complex [1]; [7]) | pIC50 (PRMT5/MEP50 complex [1]; [6]) | pIC50 (HCT116 parental cells) | pIC50 [3] | pIC50 (HCT116 parental cells; Homo sapiens, HCT-116, 240 h) | pIC50 ([3]; Homo sapiens, HCT-116, 96 h) |
| --- | --- | --- | --- | --- | --- | --- | --- | --- | --- | --- | --- | --- | --- |
| Cn1ncc(-c2ccc3c(=O)[nH]nc(CN)c3c2)c1-c1c(F)cc2ccccc2c1C#N (single isomer, unassigned) [Example 16-2] | 6.95 | 6.65 | 7.14 |  |  |  |  |  |  | 5.23 | < 6.00 |  |  |
| NCc1n[nH]c(=O)c2ccc(-c3cncc(Oc4cccc(Cl)c4)c3)cc12 [Example 4-67, 4-(aminomethyl)-6-(5-(3-chlorophenoxy)pyridin-3-yl)phthalazin-1(2H)-one] |  |  |  | 4 nM | 6.69 | 5.69 | 6.02 |  |  |  |  | 5.11 | 5.00 |
| CC(C)c1ccc(-c2c(-c3ccc4c(=O)[nH]nc(CN)c4c3)cnn2C)cc1 [Example 4-135, 4-(aminomethyl)-6-(5-(4-isopropylphenyl)-1-methyl-1H-pyrazol-4-yl)phthalazin-1(2H)-one] |  |  |  |  |  | 5.42 | 7.51 | 6.19 |  |  |  | 5.18 | 5.49 |
| Cn1ncc(-c2ccc3c(=O)[nH]nc(CN)c3c2)c1-c1cccc(OC2CCC2)c1 [Example 4-137, 4-(aminomethyl)-6-(5-(3-cyclobutoxyphenyl)-1-methyl-1H-pyrazol-4-yl)phthalazin-1(2H)-one] |  |  |  |  |  | 5.49 | 7.06 | 6.09 |  |  |  | < 5.00 | 5.29 |
| Cn1ncc(-c2ccc3c(=O)[nH]nc(CN)c3c2)c1-c1ccc2ccccc2c1 [Example 4-139, 4-(aminomethyl)-6-(1-methyl-5-(naphthalen-2-yl)-1H-pyrazol-4-yl)phthalazin-1(2H)-one] |  |  |  |  |  | 5.83 | 6.60 | 5.91 |  |  |  | 5.30 | 5.26 |
| Cn1ncc(-c2ccc3c(=O)[nH]nc(CN)c3c2)c1-c1ccccc1F [Example 4-142, 4-(aminomethyl)-6-(5-(2-fluorophenyl)-1-methyl-1H-pyrazol-4-yl)phthalazin-1(2H)-one] |  |  |  |  |  | 5.75 | 7.31 | 6.06 |  |  |  | 5.24 | 5.20 |
| CCOc1cccc(-c2c(-c3ccc4c(=O)[nH]nc(CN)c4c3)cnn2C)c1C#N [Example 4-146, 2-(4-(4-(aminomethyl)-1-oxo-1,2-dihydrophthalazin-6-yl)-1-methyl-1H-pyrazol-5-yl)-6-ethoxybenzonitrile] |  |  |  |  |  | 6.58 | 7.40 | 6.24 |  |  |  | < 5.00 | 5.17 |
| Cn1ncc(-c2ccc3c(=O)[nH]nc(CN)c3c2)c1-c1ccc2ccccc2c1C#N [Example 4-147, 2-(4-(4-(aminomethyl)-1-oxo-1,2-dihydrophthalazin-6-yl)-1-methyl-1H-pyrazol-5-yl)-1-naphthonitrile] |  |  |  |  |  | 7.30 | 7.96 | 7.37 | 6.55 |  |  | 5.72 | 5.90 |
| Cn1ncc(-c2ccc3c(=O)[nH]nc(CN)c3c2)c1-c1ccc2ncccc2c1C#N [Example 4-149, 6-(4-(4-(aminomethyl)-1-oxo-1,2-dihydrophthalazin-6-yl)-1-methyl-1H-pyrazol-5-yl)quinoline-5-carbonitrile] |  |  |  |  |  | 6.44 | 6.87 | 6.55 |  |  |  | < 5.00 | 5.20 |
